According to PMC2858410 (The Journal of comparative neurology, 2008):

Legend:
[1] = target: T1, human α2A-adrenergic receptor (hα2A; αh2A) (Homo sapiens, UniProt P08913); test: [3H]RX821002 displacement, filtration, Sf9 membranes; format: binding; conditions: […] [3H]RX821002; […] Tris-HCl pH […] MgCl2, […] EDTA
T1 sequence (P08913 1-465): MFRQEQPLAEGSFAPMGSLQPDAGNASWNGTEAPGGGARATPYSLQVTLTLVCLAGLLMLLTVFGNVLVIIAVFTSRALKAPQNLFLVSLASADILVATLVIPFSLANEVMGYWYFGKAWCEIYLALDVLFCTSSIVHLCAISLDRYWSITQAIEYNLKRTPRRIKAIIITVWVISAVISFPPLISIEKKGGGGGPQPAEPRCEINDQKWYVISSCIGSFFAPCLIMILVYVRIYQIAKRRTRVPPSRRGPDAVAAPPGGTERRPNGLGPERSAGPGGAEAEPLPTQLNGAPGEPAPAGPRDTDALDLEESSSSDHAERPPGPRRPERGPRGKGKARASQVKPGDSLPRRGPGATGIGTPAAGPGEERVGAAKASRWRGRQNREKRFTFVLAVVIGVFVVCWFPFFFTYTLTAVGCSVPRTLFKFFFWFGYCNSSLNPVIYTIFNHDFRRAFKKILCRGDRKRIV

[2] = target: T1, human α2A-adrenergic receptor (hα2A; αh2A); test: radioligand binding, filtration, Sf9 membranes; conditions: labelled compound, […]; […] Tris-HCl pH […] MgCl2, […] EDTA; […] h

| Compound | [3H]RX821002 displacement, filtration, Sf9 membranes [1] | radioligand binding, filtration, Sf9 membranes [2] |
| --- | --- | --- |
| CN1CCN(C2=Nc3cc(Cl)ccc3Nc3ccccc32)CC1 [clozapine] | apomorphine, SCH-23390 and clozapine display a substantial affinity for α2a-adrenergic receptors |  |
| CN1CCc2cc(Cl)c(O)cc2[C@@H](c2ccccc2)C1 [SCH-23390] | apomorphine, SCH-23390 and clozapine display a substantial affinity for α2a-adrenergic receptors |  |
| COC1(C2=NCCN2)COc2ccccc2O1 (stereo not shown) [RX821002] |  | [^3H]RX821002 binding was concentration-dependently inhibited by increasing concentrations of both norepinephrine and dopamine |
| CN1CCc2cccc3c2[C@H]1Cc1ccc(O)c(O)c1-3 [apomorphine] | apomorphine, SCH-23390 and clozapine display a substantial affinity for α2a-adrenergic receptors |  |
